Measurements taken from patent US7547690B2, “Compounds for the treatment of Hepatitis C” (Bristol-Myers Squibb Company, priority 2007, dated 2009).
Like-named read-outs stand apart in the source and are kept apart here.

Key:
HCV NS5B = molecular target: T1, HCV NS5B (Hepatitis C virus genotype 1b, UniProt Q9WMX2); experiment: HCV NS5B RdRp enzyme assay (standard / modified); assay type: biochemical; details: HCV RdRp genotype 1b; standard or modified assay not specified; read-out: IC50
T1 construct: The protein was expressed with an 18 amino acid C-terminal truncation to enhance the solubility; made in house; host or cells: E. coli BL21(DE3)
T1 sequence (Q9WMX2 2420-2992): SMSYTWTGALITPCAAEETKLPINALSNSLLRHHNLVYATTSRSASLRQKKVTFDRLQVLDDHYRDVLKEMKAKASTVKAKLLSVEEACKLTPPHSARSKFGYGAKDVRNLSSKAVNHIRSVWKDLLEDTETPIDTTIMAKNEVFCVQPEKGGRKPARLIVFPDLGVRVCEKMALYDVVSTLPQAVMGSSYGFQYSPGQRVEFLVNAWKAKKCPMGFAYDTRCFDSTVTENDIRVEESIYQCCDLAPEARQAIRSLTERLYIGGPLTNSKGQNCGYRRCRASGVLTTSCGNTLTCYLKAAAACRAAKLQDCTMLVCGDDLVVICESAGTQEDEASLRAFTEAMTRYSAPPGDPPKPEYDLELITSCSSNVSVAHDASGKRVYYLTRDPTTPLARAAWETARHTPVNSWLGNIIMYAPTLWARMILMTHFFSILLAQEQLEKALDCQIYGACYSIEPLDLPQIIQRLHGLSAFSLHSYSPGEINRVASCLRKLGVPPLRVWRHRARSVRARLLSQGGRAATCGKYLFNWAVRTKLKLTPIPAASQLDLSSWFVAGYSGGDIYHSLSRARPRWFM
In short: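 Genotype 1b NS5B, 18-aa C-terminal truncation, E. coli-expressed; polyA template with biotin-oligo-dT12 primer, 3H-UTP (0.29 μM UTP), pH 7.5 Hepes, 2% DMSO, 30 °C, SPA read. Standard: 28 nM enzyme, 6 nM template, 180 nM primer, 60 min. Modified: 1.75 nM enzyme, 0.36 nM template, 20 nM bead-precaptured primer, 4 h; IC50 from seven concentrations, four-parameter fit.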

HCV replicon cells = experiment: HCV replicon FRET / luciferase assay; assay type: cell-based; details: 50% reduction in FRET or luciferase activity in HCV replicon cells, read-out: EC50
In short: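 HCV replicon cells (with or without Renilla luciferase reporter) incubated with titrated compounds at 37° C; cytotoxicity read by Alamar blue. Replicon activity then read by NS3 cleavage of EDANS/DABCYL FRET peptide (20 μM final, 340/490 nm kinetic) or by luciferase; background from highest control-inhibitor wells subtracted; EC50 = concentration giving 50% signal reduction.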

SMILES	IC50 (HCV NS5B) [nM]	EC50 (HCV replicon cells; Hepatitis C virus) [nM]	EC50 (HCV replicon cells) [nM]
COc1ccc2c(c1)C1CC1(C(=O)N1CC3CCC1CN3)Cn1c-2c(C2CCCCC2)c2ccc(C(=O)NS(=O)(=O)C3CCC3)cc21 (stereo not drawn)	2.4 to 500	2.4 to 500	–
COc1ccc2c(c1)C1CC1(C(=O)N1C3CC1CN(C)C3)Cn1c-2c(C2CCCCC2)c2ccc(C(=O)NS(=O)(=O)N3CCN(C)CC3)cc21 (stereo not drawn)	2.4 to 500	2.4 to 500	–
COc1ccc2c(c1)C1CC1(C(=O)N1CC3CCC1CN3)Cn1c-2c(C2CCCCC2)c2ccc(C(=O)NS(=O)(=O)CC(F)(F)F)cc21 (stereo not drawn)	2.4 to 500	> 1000	–
COc1ccc2c(c1)C1CC1(C(=O)N1[C@@H]3CNC[C@H]1C3)Cn1c-2c(C2CCCCC2)c2ccc(C(=O)NS(=O)(=O)N(C)C)cc21 (stereo partly drawn)	2.4 to 500	2.4 to 500	–
COc1ccc2c(c1)C1CC1(C(=O)N1C[C@@H]3C[C@H]1CN3CC(C)C)Cn1c-2c(C2CCCCC2)c2ccc(C(=O)NS(=O)(=O)C(C)C)cc21 (stereo partly drawn) [drawing 94]	2.4 to 500	2.4 to 500	–
COc1ccc2c(c1)C1CC1(C(=O)N1C3CC1CN(Cc1ccccc1)C3)Cn1c-2c(C2CCCCC2)c2ccc(C(=O)NS(=O)(=O)C3CCC3)cc21 (stereo not drawn)	2.4 to 500	500 to 5000	–
COc1ccc2c(c1)C1CC1(C(=O)N1[C@@H]3C[C@H]1CN(C)C3)Cn1c-2c(C2CCCCC2)c2ccc(C(=O)NS(C)(=O)=O)cc21 (stereo partly drawn)	2.4 to 500	2.4 to 500	–
COc1ccc2c(c1)C1CC1(C(=O)N1CC3CCC1CN3)Cn1c-2c(C2CCCCC2)c2ccc(C(=O)NS(=O)(=O)C3CCCCC3)cc21 (stereo not drawn)	2.4 to 500	> 1000	–
COc1ccc2c(c1)C1CC1(C(=O)N1C3COC[C@@H]1CN(C)C3)Cn1c-2c(C2CCCCC2)c2ccc(C(=O)NS(=O)(=O)C(C)C)cc21 (stereo partly drawn)	2.4 to 500	2.4 to 500	–
COc1ccc2c(c1)C1CC1(C(=O)N1C[C@H]3C[C@@H]1CN3C(=O)OC(C)(C)C)Cn1c-2c(C2CCCCC2)c2ccc(C(=O)NS(=O)(=O)N3CCC3)cc21 (stereo partly drawn)	2.4 to 500	2.4 to 500	–
COc1ccc2c(c1)C1CC1(C(=O)N1C3CC1CN(C)C3)Cn1c-2c(C2CCCCC2)c2ccc(C(=O)NS(=O)(=O)CCCF)cc21 (stereo not drawn)	2.4 to 500	2.4 to 500	–
COc1ccc2c(c1)C1CC1(C(=O)N1C3CC1CN(Cc1ccccc1)C3)Cn1c-2c(C2CCCCC2)c2ccc(C(=O)NS(=O)(=O)CC(F)(F)F)cc21 (stereo not drawn)	2.4 to 500	500 to 5000	–
COc1ccc2c(c1)C1CC1(C(=O)N1C3COC[C@@H]1CN(C)C3)Cn1c-2c(C2CCCCC2)c2ccc(C(=O)NS(=O)(=O)CC(F)(F)F)cc21 (stereo partly drawn)	2.4 to 500	2.4 to 500	–
COc1ccc2c(c1)C1CC1(C(=O)N1[C@@H]3C[C@H]1CN(Cc1ccccc1)C3)Cn1c-2c(C2CCCCC2)c2ccc(C(=O)NS(=O)(=O)N(C)C)cc21 (stereo partly drawn)	2.4 to 500	2.4 to 500	–
CCN1CC2CC(C1)N2C(=O)C12CC1c1cc(OC)ccc1-c1c(C3CCCCC3)c3ccc(C(=O)NS(=O)(=O)C(C)C)cc3n1C2 (stereo not drawn)	2.4 to 500	2.4 to 500	–
COc1ccc2c(c1)C1CC1(C(=O)N1CC3CCC1CN3)Cn1c-2c(C2CCCCC2)c2ccc(C(=O)NS(=O)(=O)CC(C)C)cc21 (stereo not drawn)	2.4 to 500	> 1000	–
COc1ccc2c(c1)C1CC1(C(=O)N1C[C@H]3C[C@@H]1CN3CC(C)C)Cn1c-2c(C2CCCCC2)c2ccc(C(=O)NS(=O)(=O)N(C)C)cc21 (stereo partly drawn)	2.4 to 500	2.4 to 500	–
COc1ccc2c(c1)C1CC1(C(=O)N1C[C@@H]3C[C@H]1CN3C)Cn1c-2c(C2CCCCC2)c2ccc(C(=O)NS(=O)(=O)C3CC3)cc21 (stereo partly drawn) [drawing 72]	< 20	2.4 to 500	–
CCCS(=O)(=O)NC(=O)c1ccc2c(C3CCCCC3)c3n(c2c1)CC1(C(=O)N2C4CC2CN(C)C4)CC1c1cc(OC)ccc1-3 (stereo not drawn)	2.4 to 500	2.4 to 500	–
COc1ccc2c(c1)C1CC1(C(=O)N1C[C@@H]3C[C@H]1CN3C)Cn1c-2c(C2CCCCC2)c2ccc(C(=O)NS(=O)(=O)C3CC3)cc21 (stereo partly drawn) [drawing 53]	2.4 to 500	–	2.4 to 500
COc1ccc2c(c1)C1CC1(C(=O)N1C3CCCC1CN(C)C3)Cn1c-2c(C2CCCCC2)c2ccc(C(=O)NS(=O)(=O)C3CC3)cc21 (stereo not drawn)	2.4 to 500	2.4 to 500	–
COc1ccc2c(c1)C1CC1(C(=O)N1C[C@@H]3C[C@H]1CN3C)Cn1c-2c(C2CCCCC2)c2ccc(C(=O)NS(C)(=O)=O)cc21 (stereo partly drawn)	2.4 to 500	2.4 to 500	–
COc1ccc2c(c1)C1CC1(C(=O)N1[C@@H]3C[C@H]1CN(C(C)=O)C3)Cn1c-2c(C2CCCCC2)c2ccc(C(=O)NS(=O)(=O)N(C)C)cc21 (stereo partly drawn)	2.4 to 500	2.4 to 500	–
COc1ccc2c(c1)C1CC1(C(=O)N1CC3CC(C1)c1cccc(=O)n1C3)Cn1c-2c(C2CCCCC2)c2ccc(C(=O)NS(=O)(=O)N(C)C)cc21 (stereo not drawn)	2.4 to 500	2.4 to 500	–
